Reference: patent US12214076B2, “Drug delivery vehicles for atherosclerosis nanomedicine” (Northwestern University, priority 2019, dated 2025)

Legend:
[1] = Small angle x-ray scattering (SAXS) of PA nanofibers; format: physicochemical; conditions: 5 mM in PBS
Protocol: Small angle x-ray scattering (SAXS): SAXS characterization of the PA nanofibers was performed at the Advanced Photon Source in the Argonne National Laboratory on beamline 5-ID-D, DuPont-Northwestern-Dow Collaborative Access Team Synchrotron Research Center. Samples were prepared at 5 mM in PBS solution, aged at least 24 hours at 4° C., and analyzed in 1.5 mm quartz capillaries (Charles Supper) at 17 keV with a charged couple device photon detector located 245 cm behind the sample. Scattering intensities were collected using wave vector q range of 0.0024 to 0.40 Å^−1. q represents the scattering vector and is calculated as q=4π sin (θ)/λ, with θ as the scattering angle between the incident beam and detector and […] the X-ray wavelength. The plots of scattering intensity versus q were obtained using NIST software Igor Pro v8. The scattering intensities of PBS were subtracted from the PA samples using the Irena SAS macro, and the resulting plots were fitted using NCNR Analysis macro to a polydisperse core shell cylinder model.

[2] = test system: J774.2 murine macrophages; experiment: Nitric oxide production of stimulated macrophages; format: cell-based, mouse; conditions: 24 hours, LPS and stimulated, 32 μM Ac2-26 or epitope equivalent
Protocol: Macrophage culture and characterization: J774.2 murine macrophages (Sigma-Aldrich) were expanded at 4-9×10^5 cells/mL in growth media consisting of Dulbecco's Modified Eagle's Medium (Sigma-Aldrich) containing 4.5 g/L glucose, 2 mM L-glutamine, 10% v/v FBS, 100 U/m penicillin, and 100 μg/mL streptomycin. Cells were passaged using Accutase™ (StemCell Technologies) and used at passage 6-9 for all experiments. The cells were detached with Accutase™ and gentle scraping, counted, and re-suspended in flow cytometry buffer containing 2% w/v bovine serum albumin (BSA, heat shock fraction free of proteases, globulin, and fatty acids, Sigma-Aldrich) and 0.1% w/v sodium azide (Sigma-Aldrich). To minimize non-specific binding of immunoglobin to Fc receptors, macrophages were incubated with anti-mouse CD16/32 antibody (TrueStain FcX™, Biolegend) at 1 μg/1×10^5 cells for 10 minutes at 4° C. APC anti-mouse CD11b antibody or APC Armenian hamster IgG isotype control antibody (Biolegend) were added at 0.4 μg/1×10^5 cells, FPR2 antibody (Novus Biologics) was added at […], and all samples were incubated for 30 minutes at 4° C. The cells were washed once with flow cytometry buffer by centrifugation at 300×g. FPR2 samples were further treated with goat anti-rabbit Alexa Fluor 488 secondary antibody (Invitrogen) at 2 μg/1×10^5 cells for 20 minutes at 4° C., followed by a wash step. Unstained macrophages served as controls and contained 7AAD viability staining solution (Biolegend) at 0.1 μg/1×10^5. All samples were suspended in 4% paraformaldehyde (Electron Microscopy Sciences) in PBS until analysis. […] All samples were analyzed using Attune NxT Acoustic Focusing Cytometer (Thermo Fisher) with at least 2000 events counted per condition.
Therapeutic effects of ApoA1-Ac2-26 PAs: 10% ROS- and MMP-Ac2-26 PAs, as well as Ac2-26 peptide were added together with 10 μg/mL LPS at 32 μM Ac2-26 to macrophages. […] Concerning the quantification of NO, the reducing solution made of KI in acetic acid and water provides an excess of I− that reacts with nitrite yielding ·NO. […]

[3] = TEM characterization of PA nanofibers for diameter and length (Example 3); format: physicochemical; conditions: 30 measurements from three images
Protocol: Samples at 1 mM in PBS were prepared for TEM by plating on copper supports covered with thin carbon foil 400-mesh that were treated with glow discharge. […] Due to the overlapping fibers, automated tools including FiberApp could not be used to analyze the nanofibers. Instead, the TEM images were analyzed manually for nanofiber diameter and length using ImageJ software. Cryogenic TEM of samples was also performed using a JEOL 1230 at 100 kV accelerating voltage and Gatan 831 CCD camera. […] Samples were prepared at 1 mM in PBS blotted once for 3 seconds before plunging into liquid ethane using a Vitrobot Mark III (FEI) vitrification robot.

SAXS slope of Guinier regime in the low q region [1]: −1 | Diameter (nm) Average [3]: 12.3 nm | Diameter (nm) Median [3]: 12.4 nm | Length (nm) Average [3]: 3024.4 nm | Length (nm) Median [3]: 2541.4 nm | Diameter (nm) Average ([3]; listed as diluent): 12.3±3.1 nm | Length (nm) Median ([3]; listed as diluent): 2541 nm
Substance: C16-V2A2 (SEQ ID NO: 8)-E2-NH2 [Diluent PA]
macrophage activation, nitric oxide production relative to the stimulated control [2]: did not cause significant decreases in nitric oxide production
